ChEMBL document CHEMBL1201862, “PubChem BioAssay data set” (2004)
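Five concentrations, 48 hours, 96-well plates. Abbreviation: GI50, concentration required for 50% inhibition of growth.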 Activity calls are given as the source filed them. Cut-off read from the data, not from the text of the source: active = GI50 up to about 1.1 µM and inactive = higher. Where a SMILES comes first, the peptide text is derived from it. [ ]: non-standard residue; d: D form. Ac5c = NC1(C(=O)O)CCCC1

Legend:
Assay in all cases: inhibition of tumour cell growth, NCI panel, 48 h
CCRF-CEM = tested on: CCRF-CEM
EKVX = tested on: EKVX
HCT-116 = tested on: HCT-116
K562 = tested on: K562
LOX IMVI = tested on: LOX IMVI
M14 = tested on: M14
MOLT-4 = tested on: MOLT-4
NCI-H23 = tested on: NCI-H23
NCI-H460 = tested on: NCI-H460
NCI-H522 = tested on: NCI-H522
NCI/ADR-RES = tested on: NCI/ADR-RES
OVCAR-5 = tested on: OVCAR-5
OVCAR-8 = tested on: OVCAR-8
SF-295 = tested on: SF-295
SK-MEL-28 = tested on: SK-MEL-28
SK-MEL-2 = tested on: SK-MEL-2
SNB-19 = tested on: SNB-19
SW-620 = tested on: SW-620
U-251 = tested on: U-251
UACC-257 = tested on: UACC-257

Row | SMILES | GI50 (CCRF-CEM) | GI50 (EKVX) | GI50 (HCT-116) | GI50 (K562) | GI50 (LOX IMVI) | GI50 (M14) | GI50 (MOLT-4) | GI50 (NCI-H23) | GI50 (NCI-H460) | GI50 (NCI-H522) | GI50 (NCI/ADR-RES) | GI50 (OVCAR-5) | GI50 (OVCAR-8) | GI50 (SF-295) | GI50 (SK-MEL-28) | GI50 (SK-MEL-2) | GI50 (SNB-19) | GI50 (SW-620) | GI50 (U-251) | GI50 (UACC-257)
1 | O=C(/C=C/c1ccccc1)CCC1C(=O)c2ccccc2C1=O | > 100 µM (inactive) | > 100 µM (inactive) | > 100 µM (inactive) | > 100 µM (inactive) | > 100 µM (inactive) | > 100 µM (inactive) | > 100 µM (inactive) | > 100 µM (inactive) | > 100 µM (inactive) | > 100 µM (inactive) | > 100 µM (inactive) | > 100 µM (inactive) | > 100 µM (inactive) | > 100 µM (inactive) | > 100 µM (inactive) | > 100 µM (inactive) | > 100 µM (inactive) | > 100 µM (inactive) | > 100 µM (inactive) | > 100 µM (inactive)
2 | Cn1c(=O)c2c(-c3ccccc3)onc2n(C)c1=O | 22.4 µM (inactive) | 38.4 µM (inactive) | 27.4 µM (inactive) | 30.3 µM (inactive) | 21.2 µM (inactive) | 16.9 µM (inactive) | 26.8 µM (inactive) | 14 µM (inactive) | 35.9 µM (inactive) | 27.9 µM (inactive) | 27.5 µM (inactive) | 31 µM (inactive) | 24 µM (inactive) | 40.7 µM (inactive) | – | 15.8 µM (inactive) | 40.7 µM (inactive) | 26.6 µM (inactive) | 28.1 µM (inactive) | 31.3 µM (inactive)
3 | C/C(=N\Nc1nc2cc(Cl)ccc2s1)c1ccccn1 | 0.373 µM (active) | 0.129 µM (active) | 0.301 µM (active) | 0.136 µM (active) | 0.459 µM (active) | 0.443 µM (active) | 0.0346 µM (active) | 0.403 µM (active) | 0.673 µM (active) | 0.189 µM (active) | 0.343 µM (active) | 2.77 µM (inactive) | 0.177 µM (active) | 0.914 µM (active) | 2.56 µM (inactive) | 0.442 µM (active) | 1.01 µM (active) | 0.817 µM (active) | 0.877 µM (active) | 0.519 µM (active)
4 | NC1(C(=O)NC2(C(=O)O)CCCC2)CCCC1 (H-[Ac5c]-[Ac5c]-OH) | > 100 µM (inactive) | > 100 µM (inactive) | > 100 µM (inactive) | > 100 µM (inactive) | > 100 µM (inactive) | > 100 µM (inactive) | > 100 µM (inactive) | > 100 µM (inactive) | > 100 µM (inactive) | > 100 µM (inactive) | > 100 µM (inactive) | > 100 µM (inactive) | > 100 µM (inactive) | > 100 µM (inactive) | > 100 µM (inactive) | > 100 µM (inactive) | > 100 µM (inactive) | > 100 µM (inactive) | > 100 µM (inactive) | > 100 µM (inactive)
5 | CN(C)CC1COC2Cc3ccccc3C1O2 (stereo not drawn) | > 100 µM (inactive) | > 100 µM (inactive) | > 100 µM (inactive) | > 100 µM (inactive) | > 100 µM (inactive) | > 100 µM (inactive) | > 100 µM (inactive) | > 100 µM (inactive) | > 100 µM (inactive) | > 100 µM (inactive) | > 100 µM (inactive) | > 100 µM (inactive) | > 100 µM (inactive) | > 100 µM (inactive) | > 100 µM (inactive) | > 100 µM (inactive) | > 100 µM (inactive) | – | > 100 µM (inactive) | > 100 µM (inactive)
6 | O=C1CSC(c2cc3cc(Br)ccc3nc2Cl)N1c1ccc(F)c(Cl)c1 (stereo not drawn) | 13.1 µM (inactive) | 25.1 µM (inactive) | > 50 µM (inactive) | 18.6 µM (inactive) | 22.9 µM (inactive) | > 50 µM (inactive) | 11.1 µM (inactive) | > 50 µM (inactive) | 40.8 µM (inactive) | 33.1 µM (inactive) | > 50 µM (inactive) | > 50 µM (inactive) | > 50 µM (inactive) | > 50 µM (inactive) | > 50 µM (inactive) | > 50 µM (inactive) | > 50 µM (inactive) | 28.5 µM (inactive) | – | > 50 µM (inactive)
7 | O=C1N[C@@H](c2c[nH]c3cc(Br)ccc23)C(=O)N[C@H]1c1c[nH]c2cc(Br)ccc12 | > 100 µM (inactive) | > 100 µM (inactive) | > 100 µM (inactive) | > 100 µM (inactive) | > 100 µM (inactive) | > 100 µM (inactive) | – | > 100 µM (inactive) | > 100 µM (inactive) | > 100 µM (inactive) | > 100 µM (inactive) | > 100 µM (inactive) | 29.9 µM (inactive) | > 100 µM (inactive) | > 100 µM (inactive) | > 100 µM (inactive) | > 100 µM (inactive) | > 100 µM (inactive) | 25.8 µM (inactive) | > 100 µM (inactive)
8 | COc1cc2c(cc1OC)[C@H](C)N1CCc3cc(OC)c(OC)cc3[C@@H]1C2 | > 100 µM (inactive) | > 100 µM (inactive) | > 100 µM (inactive) | > 100 µM (inactive) | > 100 µM (inactive) | – | > 100 µM (inactive) | > 100 µM (inactive) | > 100 µM (inactive) | > 100 µM (inactive) | > 100 µM (inactive) | > 100 µM (inactive) | > 100 µM (inactive) | > 100 µM (inactive) | > 100 µM (inactive) | > 100 µM (inactive) | > 100 µM (inactive) | > 100 µM (inactive) | > 100 µM (inactive) | > 100 µM (inactive)
9 | COc1ccc(NC(C(N)=O)c2cc3cc(Br)ccc3nc2Cl)cc1 (stereo not drawn) | 26.2 µM (inactive) | 28.1 µM (inactive) | 61 µM (inactive) | 26.7 µM (inactive) | 44.6 µM (inactive) | 42 µM (inactive) | 20.2 µM (inactive) | > 100 µM (inactive) | 89.5 µM (inactive) | 34 µM (inactive) | 39 µM (inactive) | > 100 µM (inactive) | 57.1 µM (inactive) | 38.4 µM (inactive) | > 100 µM (inactive) | 30.3 µM (inactive) | > 100 µM (inactive) | 38.7 µM (inactive) | – | 71.8 µM (inactive)
10 | Cc1cc(C2(O)C=C(C(C)(C)C)C(=O)C(C(C)(C)C)=C2)c(C)cc1C1(O)C=C(C(C)(C)C)C(=O)C(C(C)(C)C)=C1 | > 100 µM (inactive) | > 100 µM (inactive) | > 100 µM (inactive) | > 100 µM (inactive) | > 100 µM (inactive) | > 100 µM (inactive) | > 100 µM (inactive) | > 100 µM (inactive) | – | > 100 µM (inactive) | > 100 µM (inactive) | > 100 µM (inactive) | > 100 µM (inactive) | > 100 µM (inactive) | > 100 µM (inactive) | > 100 µM (inactive) | > 100 µM (inactive) | > 100 µM (inactive) | > 100 µM (inactive) | > 100 µM (inactive)
